Active and inactive are the calls of the source.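 Rule for the calls: active = fitted curve reaches a 40% rise in fluorescent cells at or below the top valid dose; inactive = opposite-direction effect, or the rest.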
test: compound fluorescence in GFP channel, mTEFS cells – imaging, mTEFS fibroblasts, cherry-pick, artefact control for X-chromosome reactivation project, dose response (AID 743396); settings: mTEFS fibroblasts autofluorescence, GFP-channel imaging, 3 days; at 19.5 µM (top of the series);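 note: raw share of Hoechst-counted cells scored GFP positive without control normalization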

| Structure (SMILES) | % fluorescent cells increase |
| --- | --- |
| OCC[n+]1c2ccccc2nc2ccc(N3CCOCC3)cc21 | 0% (inactive) |

same assay, conditions: mTEFS fibroblasts autofluorescence, GFP-channel imaging, 3 days; at 19.5 µM (top of the series); cells pretreated with 5-aza-dC

| Structure (SMILES) | % fluorescent cells increase |
| --- | --- |
| C[C@@H]1CN([C@H](C)CO)C(=O)c2cc(NS(=O)(=O)c3ccccc3)ccc2O[C@@H](C)CCCCO[C@@H]1CN(C)Cc1ccc2c(c1)OCO2 | 3.87% (inactive) |
| COc1ccccc1N=Nc1c(C)[nH]n(-c2ccccc2)c1=O | 0% (inactive) |
| CC(=O)c1ccc(C(=O)Nc2sc3c(c2C(N)=O)CCN(Cc2ccccc2)C3)cc1 | 8.52% (inactive) |
| CO[C@H]1CN(C)C(=O)c2ccc(NC(=O)Cc3ccccc3)cc2OC[C@@H](C)N(C)C[C@H]1C | 0% (inactive) |
| CCc1ccc(NS(=O)(=O)c2ccc3[nH]cc(C(=O)N4CCc5ccccc54)c(=O)c3c2)cc1 | 0% (inactive) |
| O=C(O)c1ccc(COc2ccccc2C=C2C(=O)c3ccccc3C2=O)cc1 | -0.004% (inactive) |
| CC1CCN(C(=O)Cn2nnc(-c3ccccc3)n2)CC1 | 0.009% (inactive) |
| COc1ccc(NC(=O)Nc2ccc3c(c2)C(=O)N([C@@H](C)CO)C[C@H](C)[C@@H](CN(C)S(=O)(=O)c2ccc(OC)cc2)O3)cc1 | 0% (inactive) |
| CC(C)(C)[S@@](=O)N1Cc2cc(C(=O)N3CCCCC3)nc(-c3cccc(-c4cccc(C#N)c4)c3)c2[C@H]1CCO | 0.101% (inactive) |
| Cc1ccccc1C1c2[nH]c3ccccc3c2CCN1Cc1cccn1-c1ncccn1 (stereo not drawn) | 0.002% (inactive) |
| CCc1ccc(CN(C)C(=O)c2cc(S(=O)(=O)N3CCOCC3)ccc2N2CCCC2)cc1 | 0.027% (inactive) |
| COc1cc(CNc2nc3ccccc3n2C)cc(OC)c1OC | 0% (inactive) |
| Cc1cc(N)ncc1[N+](=O)[O-] | 0.218% (inactive) |
| O=C(c1ccc(S(=O)(=O)c2ccc(Cl)cc2)cc1)N1CCOCC1 | 0.948% (inactive) |
| CN(C)C=NC(=O)c1cc(C(=O)c2ccc(Cl)cc2Cl)c[nH]1 | 0.032% (inactive) |
| COC(=O)c1ccc(NC(=O)c2nc(S(=O)(=O)Cc3cccc(C)c3)ncc2Cl)cc1 | -0.007% (inactive) |
| C=Cc1cnc([N+](=O)[O-])n1C | 0.007% (inactive) |
| COc1ccc(/C=C2\CCc3ccccc3C2=O)cc1CN1CCOCC1 | -0.007% (inactive) |
| C[C@@H]1CN([C@@H](C)CO)S(=O)(=O)c2ccc(C#CC3CC3)cc2O[C@H]1CN(C)Cc1ccc(F)cc1 | 0.107% (inactive) |

| Structure (SMILES) | % fluorescent cells increase |
| --- | --- |
| COc1ccc(N2CCN(C(CNC(=O)c3ccc4c(c3)OCO4)c3ccco3)CC2)cc1 (stereo not drawn) | 0% (inactive) |
| CCc1ccc(C(=O)NNc2ccc(S(N)(=O)=O)cc2)cc1 | -0.004% (inactive) |
| COc1ccc(N2C(=O)C3CCCN3C2c2cccc(OC)c2)cc1 (stereo not drawn) | 0.021% (inactive) |
| N/C(=N\c1nc(CSc2nc3ccccc3s2)cc(=O)[nH]1)Nc1ccc(F)cc1 | 2.21% (inactive) |
| CO[C@H]1CN(C)C(=O)c2ccc(NC(=O)C3CCCCC3)cc2OC[C@H](C)NC[C@@H]1C | 0.009% (inactive) |
| COc1cccc(CNC(=O)C(Cc2ccccc2)n2cccc2)c1 (stereo not drawn) | 0% (inactive) |
| Oc1cc2c(c(Cl)c1O)CCNCC2c1ccccc1 (stereo not drawn) | -0.007% (inactive) |
| O=[N+]([O-])c1ccccc1-c1ccc(C(=S)N2CCN(c3ccccc3)CC2)o1 | 0.237% (inactive) |
| C=CCNC(=O)N[C@@H](Cc1ccccc1)C(=O)OC | 1.04% (inactive) |
| COc1ccc(C(=O)CN2Cc3ccccc3C2=N)cc1 | 0.041% (inactive) |
| COc1cc(NS(=O)(=O)c2ccc3ccccc3c2)c2ncccc2c1 | 0% (inactive) |
| C[C@H](NC(=O)C[C@@H]1CC[C@H](NC(=O)Cc2ccccn2)[C@@H](CO)O1)c1ccccc1 | 0.048% (inactive) |
| COc1cc(CN2CCC(C(=O)NCC(C)(C)CN(C)C)CC2)ccc1OCc1ccccc1 | 0.013% (inactive) |
| CCOCCCn1c(=NC(C)=O)c(C#N)cc2c(=O)n3cccc(C)c3nc21 | 0.498% (inactive) |
| COCCCn1c(C)cc(C(=O)COC(=O)CCc2nc3ccccc3c(=O)[nH]2)c1C | 3.52% (inactive) |
| Cn1c(=N)n(CC(=O)c2ccccc2)c2ccccc21 | 0% (inactive) |
| COc1ccc(NC(=O)Nc2ccc3c(c2)CC(=O)N([C@H](C)CO)C[C@H](C)[C@@H](CN(C)S(=O)(=O)c2ccc(F)cc2)O3)cc1 | 2.89% (inactive) |
| Cc1ccc(S(=O)(=O)N(C)C[C@H]2OCCCC[C@@H](C)Oc3ccc(NC(=O)Nc4c(C)noc4C)cc3C(=O)N([C@H](C)CO)C[C@@H]2C)cc1 | 0.012% (inactive) |
| CN(C)c1ccc(NC2=C(Cl)C(=O)c3ccccc3C2=O)cc1 | -0.006% (inactive) |

| Structure (SMILES) | % fluorescent cells increase |
| --- | --- |
| CCOCCCNC(=O)C(c1ccc(C)cc1)N(Cc1cccs1)C(=O)c1ccccn1 (stereo not drawn) | 0% (inactive) |
| COc1ccc2c3c(n(C)c2c1)[C@@H](CO)N(C)CC31CN(C(=O)NC(C)C)C1 | -0.14% (inactive) |
| C[C@@H]1CN([C@@H](C)CO)C(=O)c2cc(NS(C)(=O)=O)ccc2O[C@@H](C)CCCCO[C@@H]1CN(C)Cc1ccccc1 | 0.259% (inactive) |
| CCN1C(=O)C(=Cc2cccc(OC)c2Oc2ccc([N+](=O)[O-])cc2[N+](=O)[O-])SC1=S | 1.07% (inactive) |
| CCOc1ccc(NC(=S)NC(C)c2cccs2)cc1 (stereo not drawn) | 0% (inactive) |
| C[C@H]1CCCCO[C@H](CN(C)S(=O)(=O)c2ccc(Cl)cc2)[C@@H](C)CN([C@@H](C)CO)C(=O)c2cc(NC(=O)Nc3ccccc3)ccc2O1 | 1.86% (inactive) |
| O=C(CCl)N=c1sccn1Cc1cccc2ccccc12 | 9.31% (inactive) |
| Cc1cc(NC(=O)c2c(-c3c(Cl)cccc3Cl)noc2C)n(C)n1 | 0.012% (inactive) |
| CCN(CC)c1ccc(/C=C/C(=O)C2C(=O)C=C(C)OC2=O)cc1 (stereo not drawn) | 1.2% (inactive) |
| Cc1ccccc1NC(=O)c1cn2c(nc3ccccc32)c(C#N)c1C | 2.44% (inactive) |
| CCCOc1ccc(Oc2nc(-c3ccncc3)nc3ccccc23)cc1 | 0.007% (inactive) |
| COc1ccc2nc(SCC(=O)Nc3ccccc3OC)[nH]c2c1 | 0.385% (inactive) |
| COc1ccc(C2C(=O)c3ccccc3C2=Nc2ccc(Br)cc2)cc1 (stereo not drawn) | 0.033% (inactive) |
| CCc1ccc(CCC(=O)Nc2ncc(Cc3ccccc3Cl)s2)o1 | -0.007% (inactive) |
| CCCCCCCCN1C(=O)[C@H](CC(=O)N2CCSCC2)C[C@@]2(C(=O)OCC)CCCC=C12 | 0.056% (inactive) |
| CCC(=O)N1CC(=O)N2[C@@H](CO)[C@@H](c3ccc(-c4ccccc4F)cc3)[C@@H]2C1 | 0% (inactive) |
| Cc1ccc(/C=C/C(=O)N2CCN(S(=O)(=O)/C=C/c3ccccc3)CC2)o1 | 0.017% (inactive) |
| Cc1ccc(Cn2cc(/C=N/Nc3ccc([N+](=O)[O-])cn3)c3ccccc32)cc1 | 0.941% (inactive) |

same assay, conditions: mTEFS fibroblasts autofluorescence, GFP-channel imaging, 3 days; at 21 µM (top of the series); cells pretreated with 5-aza-dC

| Structure (SMILES) | % fluorescent cells increase |
| --- | --- |
| Cc1noc(C)c1NC(=O)N(C)C[C@@H]1Oc2ccc(NC(=O)C3CC3)cc2CC(=O)N([C@@H](C)CO)C[C@@H]1C | 0.068% (inactive) |

Reference: PubChem BioAssay AID743396 (Broad Institute, 2014)
